Laboratory results published in PubChem BioAssay AID1053146 (Broad Institute, 2014).

Tested on: HepG2 BODIPY-LDL uptake, high-content imaging
Assay: increase of fluorescent LDL uptake in hepatoma cells – imaging, BODIPY-LDL, cherry-pick, dose response (AID 1053146)

CN1C(=O)c2cc(NC(=O)c3ccc(C(F)(F)F)cc3)ccc2OC[C@@H]2O[C@H](CC(=O)NC3Cc4ccccc4C3)CC[C@@H]21
EC50: 1.1 µM

CN1C(=O)c2cc(NC(=O)c3ccc(C(F)(F)F)cc3)ccc2OC[C@@H]2O[C@@H](CC(=O)NC3Cc4ccccc4C3)CC[C@@H]21
EC50: 4.6 µM
